In patent publication US10107794B2, “Methods of using U2-OS cells to identify potential sweet taste modulators” (PepsiCo, Inc., priority 2013, dated 2018):

Tests used:
Assay type in all cases: cell-based
sweet receptor T1R2/T1R3 [1] = molecular target: T1, sweet receptor T1R2/T1R3 (Homo sapiens, UniProt Q7RTX0+Q8TE23); test: pERK1/2 assay in U2-OS cells transfected with Gα15; conditions: for pERK1/2 activation: U2-OS cells overexpressing Gα15 (6 μl/40,000 cells), 100 mM
T1 construct: Formation of green fluorescent vesicles in TRANSFLUOR U2-OS cells transfected with BacMam encoding Gα15; endogenous in cells; host or cells: TRANSFLUOR U2-OS cells stably expressing β-arrestin-GFP, transfected with BacMam Gα15
T1 sequence (Q8TE23 20-839): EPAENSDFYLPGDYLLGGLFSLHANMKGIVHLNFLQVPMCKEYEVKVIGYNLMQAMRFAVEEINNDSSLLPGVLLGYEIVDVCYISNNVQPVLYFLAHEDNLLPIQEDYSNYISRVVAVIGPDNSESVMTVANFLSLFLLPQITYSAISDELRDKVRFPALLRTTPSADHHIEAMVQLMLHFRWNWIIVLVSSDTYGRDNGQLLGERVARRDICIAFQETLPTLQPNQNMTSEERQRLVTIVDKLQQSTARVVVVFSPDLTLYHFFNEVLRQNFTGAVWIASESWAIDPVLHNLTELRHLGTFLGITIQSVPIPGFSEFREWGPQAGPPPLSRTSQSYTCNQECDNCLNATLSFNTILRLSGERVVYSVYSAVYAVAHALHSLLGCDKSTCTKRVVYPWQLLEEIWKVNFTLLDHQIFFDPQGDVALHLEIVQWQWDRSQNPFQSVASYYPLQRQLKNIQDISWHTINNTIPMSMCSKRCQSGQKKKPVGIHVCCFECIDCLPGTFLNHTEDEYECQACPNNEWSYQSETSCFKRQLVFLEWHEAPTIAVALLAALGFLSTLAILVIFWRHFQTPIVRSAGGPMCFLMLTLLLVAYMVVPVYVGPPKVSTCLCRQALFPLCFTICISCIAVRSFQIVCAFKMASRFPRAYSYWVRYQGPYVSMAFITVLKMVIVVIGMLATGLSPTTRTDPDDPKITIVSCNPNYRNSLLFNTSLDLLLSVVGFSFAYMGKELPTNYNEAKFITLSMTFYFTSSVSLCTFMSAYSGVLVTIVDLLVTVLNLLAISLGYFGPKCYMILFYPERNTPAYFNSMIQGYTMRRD
T1 sequence (Q7RTX0 21-852): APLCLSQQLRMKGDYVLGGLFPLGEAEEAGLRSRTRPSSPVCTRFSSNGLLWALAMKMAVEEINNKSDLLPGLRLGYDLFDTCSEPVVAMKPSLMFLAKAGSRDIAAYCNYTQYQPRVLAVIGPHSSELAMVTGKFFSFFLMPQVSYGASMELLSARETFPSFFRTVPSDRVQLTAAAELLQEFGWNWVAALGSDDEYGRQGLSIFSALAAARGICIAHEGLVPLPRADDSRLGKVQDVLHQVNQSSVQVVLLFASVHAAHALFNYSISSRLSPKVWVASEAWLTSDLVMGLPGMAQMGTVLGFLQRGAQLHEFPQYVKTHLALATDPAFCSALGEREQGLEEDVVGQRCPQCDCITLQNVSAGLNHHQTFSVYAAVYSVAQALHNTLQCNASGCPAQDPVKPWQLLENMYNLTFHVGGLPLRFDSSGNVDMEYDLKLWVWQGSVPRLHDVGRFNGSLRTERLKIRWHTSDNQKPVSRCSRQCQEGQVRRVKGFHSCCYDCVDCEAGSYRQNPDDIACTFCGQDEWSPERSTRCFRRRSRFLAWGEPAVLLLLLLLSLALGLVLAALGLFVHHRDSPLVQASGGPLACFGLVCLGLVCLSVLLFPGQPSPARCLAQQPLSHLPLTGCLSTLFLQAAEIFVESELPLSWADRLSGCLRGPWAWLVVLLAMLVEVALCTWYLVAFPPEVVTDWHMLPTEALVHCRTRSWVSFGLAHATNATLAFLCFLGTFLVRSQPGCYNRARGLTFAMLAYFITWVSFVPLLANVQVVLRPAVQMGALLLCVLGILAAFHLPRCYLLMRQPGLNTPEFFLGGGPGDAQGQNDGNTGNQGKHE
Method: (§1) U2-OS cells were transiently transfected with 0.5-12 μl of BacMam encoding G protein, gustducin (Gα15, Gα16gust44) per 40,000 cells during 24 h or 48 h. Transfected cells were seeded at density of 5,000 cells/well on PDL-coated 384-well plates.
For pERK1/2 studies, growth media was replaced with media without serum for 2 h. U2-OS cells were treated with 100 mM Sweet compounds with or without of U73122 (10 μM) and with or without […] (20 mM). Control groups of cells also received DMSO (0.1%) in medium. The fixed cells were stained with rabbit anti-phospho-p44/p42 MAPK (pERK1/2) antibodies from Cell Signaling Technologies, then with secondary Alexa 488-conjugated antibodies (Life Technology) and HOECHST 33342. Images were acquired on an ImageXpressMicro (MDC) and analyzed with MWCS Module.
The phosphorylation of ERK1/2 is a common downstream event following GPCR activation via the PLCβ2-IP3 pathway. Growth media was replaced with Dulbecco's phosphate buffered saline (DPBS) without serum for 2 h. […] For each data point, average of Mean Cell Integrated intensity and standard deviation are calculated from quadruplicate data points. […]

sweet receptor T1R2/T1R3 [2] = molecular target: T1, sweet receptor T1R2/T1R3; test: Calcium assay (FLIPR) in U2-OS cells transfected with Gα15; conditions: U2-OS transfected with Gα15 BacMam; 100 mM
Method: as §1
Calcium traces in Fluo-4AM loaded cells were recorded over time in FLIPR^Tetra (MDC) with λEX=470-495 nm and λEM=515-575 nm. The peak increase in fluorescence over baseline was determined and is expressed as relative fluorescence units (RFU).

sweet receptor T1R2/T1R3 [3] = molecular target: T1, sweet receptor T1R2/T1R3; test: pERK1/2 assay in parental U2-OS cells (high content imaging); conditions: 100 mM, 5, 15 and 30 minutes
Method: U2-OS cells were grown in McCoy media supplemented with 10% fetal bovine serum. Cells were seeded at density of 5,000 cells/well on PDL-coated 384-well plates.
For pERK1/2 studies, growth media was replaced with media without serum for 2 h. […] (20 mM). Control groups of cells also received DMSO (0.1%) in medium. […] Images were acquired on an ImageXpressMicro (MDC) and analyzed with MWCS Module.
The phosphorylation of ERK1/2 is a common downstream event following GPCR activation via the PLCβ2-IP3 pathway. Growth media was replaced with Dulbecco's phosphate buffered saline (DPBS) without serum for 2 h. […] For each data point, average of Mean Cell Integrated intensity and standard deviation are calculated from quadruplicate data points.

[4] = molecular target: T2, sweet taste receptor T1R2/T1R3/Gα15 (Homo sapiens, UniProt Q7RTX0+Q8TE23); test: Calcium assay (FLIPR) in JUMP-IN T-REX U2-OS cells with doxycycline-inducible T1R2/T1R3/Gα15; conditions: U73122
T2 construct: expressed in transfected cells; host or cells: JUMP-IN T-REX U2-OS cells
T2 sequence (Q8TE23 20-839): T1 sequence (Q8TE23 20-839)
T2 sequence (Q7RTX0 21-852): T1 sequence (Q7RTX0 21-852)
Method: JUMP-IN T-REX U2-OS cells were transfected with the PJTI-R4EXP-CMV-TO-T1R3/T1R2/Gα15-pA and JTI-R4 Integrase vectors (Life Technology).
The peak increase in fluorescence over baseline was determined and is expressed as relative fluorescence units (RFU).

OC[C@H]1O[C@H](O[C@H]2[C@H](O)[C@@H](O)C(O)O[C@@H]2CO)[C@H](O)[C@@H](O)[C@@H]1O (mixture of isomers) [maltose]
pERK1/2 activation (sweet receptor T1R2/T1R3 [1]): increased pERK1/2 activity

O=C(CO)[C@@H](O)[C@H](O)[C@H](O)CO [D-fructose]
Ca2+ response (sweet receptor T1R2/T1R3 [2]): significantly increased Ca^(2+) response

O=C[C@H](O)[C@@H](O)[C@H](O)[C@H](O)CO [D-glucose]
pERK1/2 activation (sweet receptor T1R2/T1R3 [3]): induced pERK1/2 activation in a time-dependent manner | pERK1/2 activation (sweet receptor T1R2/T1R3 [3]; listed as glucose): activates pERK1/2 | pERK1/2 activation (sweet receptor T1R2/T1R3 [1]): induced pERK1/2 activation in a time-dependent manner | pERK1/2 activation (sweet receptor T1R2/T1R3 [1]; listed as glucose): increased pERK1/2 activity | Ca2+ response (sweet receptor T1R2/T1R3 [2]): significantly increased Ca^(2+) response

COc1ccc2c(c1)CC[C@@H]1[C@@H]2CC[C@]2(C)[C@@H](NCCCCCCN3C(=O)C=CC3=O)CC[C@@H]12 [U73122]
Blockade of pERK1/2 activation (sweet receptor T1R2/T1R3 [1]; U73122 10 μM, U2-OS cells transfected with Gα15): blocked | Effect on Ca2+ release upon treatment with D-glucose and D-fructose [4]: abolished | Effect on Ca2+ response after stimulation with sucrose and sucralose [4]: had no effect

OC[C@H]1O[C@H](O[C@]2(CCl)O[C@H](CCl)[C@@H](O)[C@@H]2O)[C@H](O)[C@@H](O)[C@H]1Cl [sucralose]
Ca2+ response (sweet receptor T1R2/T1R3 [2]): induced Ca^(2+) response

OC[C@H]1O[C@@](CO)(O[C@H]2O[C@H](CO)[C@@H](O)[C@H](O)[C@H]2O)[C@@H](O)[C@@H]1O [sucrose]
Ca2+ response (sweet receptor T1R2/T1R3 [2]): significantly increased Ca^(2+) response
